Measured values from patent US9694016B2 (Novartis AG, priority 2013, dated 2017).

These compounds were tested against b-Raf (V600E) (Homo sapiens (Human), UniProt P15056, V600E). Conditions: read-out: b-Raf IC-50.
Chain of b-Raf (V600E) (P15056 whole entry V600E): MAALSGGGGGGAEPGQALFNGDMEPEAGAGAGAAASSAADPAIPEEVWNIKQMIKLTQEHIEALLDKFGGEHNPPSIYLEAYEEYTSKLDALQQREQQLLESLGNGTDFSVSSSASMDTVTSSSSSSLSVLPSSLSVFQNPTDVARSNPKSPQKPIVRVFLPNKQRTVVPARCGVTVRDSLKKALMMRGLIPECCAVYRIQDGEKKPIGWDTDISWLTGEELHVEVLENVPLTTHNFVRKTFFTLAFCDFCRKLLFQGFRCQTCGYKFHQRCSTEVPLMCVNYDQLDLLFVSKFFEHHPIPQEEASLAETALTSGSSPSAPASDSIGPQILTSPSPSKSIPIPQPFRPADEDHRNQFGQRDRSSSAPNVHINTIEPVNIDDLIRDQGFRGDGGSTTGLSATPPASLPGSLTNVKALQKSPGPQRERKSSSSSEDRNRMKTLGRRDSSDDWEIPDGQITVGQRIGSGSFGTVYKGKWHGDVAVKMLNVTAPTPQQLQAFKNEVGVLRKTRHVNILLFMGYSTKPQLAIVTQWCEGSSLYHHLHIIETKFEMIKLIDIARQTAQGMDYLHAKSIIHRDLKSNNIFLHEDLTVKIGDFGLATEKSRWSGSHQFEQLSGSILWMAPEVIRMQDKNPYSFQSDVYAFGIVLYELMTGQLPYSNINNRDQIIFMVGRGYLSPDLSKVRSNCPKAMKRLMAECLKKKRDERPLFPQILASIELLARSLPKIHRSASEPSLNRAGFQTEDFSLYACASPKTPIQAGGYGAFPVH

Row | Compound | IC50 [nM]
1 | Cc1ccc(NC(=O)c2cccc(C(F)(F)F)c2)cc1-c1cc(N2CCOCC2)nc(N2CCOCC2)n1 [Example 10, N-(3-(2,6-dimorpholinopyrimidin-4-yl)-4-methylphenyl)-3-(trifluoromethyl)benzamide] | 0.3

Same assay, conditions: read-out: b-Raf IC-50; AlphaScreen, 60 min pre-incubation, reaction 3 hours at room temperature

Row | Compound | IC50 [nM]
2 | Cc1ccc(NC(=O)[C@@H]2CCN[C@H](C(F)(F)F)C2)cc1-c1cc(C2COCCO2)nc(N2CCOCC2)c1 (stereo in doubt) [Example 1132, N-(3-(2-(1,4-dioxan-2-yl)-6-morpholinopyridin-4-yl)-4-methylphenyl)-2-(trifluoromethyl)piperidine-4-carboxamide] | 270

Same assay, conditions: read-out: b-Raf IC-50; Table 2; AlphaScreen, 3 hours reaction

Row | Compound | IC50 [nM]
3 | Cc1ncc(NC(=O)c2cccc(C(F)(F)F)c2)cc1-c1cnc(OC2CCCC(O)C2)c(N2CCOCC2)c1 (single isomer, unassigned) [Example 320, N-(6′-((3-hydroxycyclohexyl)oxy)-2-methyl-5′-morpholino-[3,3′-bipyridin]-5-yl)-3-(trifluoromethyl)benzamide] | 1.7
4 | Cc1ccc(NC(=O)c2cccc(C(F)(F)F)c2)cc1-c1cc(N2CCOCC2)ncn1 [Example 1, N-(4-methyl-3-(6-morpholinopyrimidin-4-yl)phenyl)-3-(trifluoromethyl)benzamide] | 0.3
5 | Cc1ccc(NC(=O)c2ccnc(C(C)(C)C#N)c2)cc1-c1cc(N2CCOCC2)ncn1 [Example 2, 2-(2-cyanopropan-2-yl)-N-(4-methyl-3-(6-morpholinopyrimidin-4-yl)phenyl)isonicotinamide] | 4.8
6 | Cc1ccc(NC(=O)c2cccc(C(F)(F)F)c2)cc1-c1cc(N2CCS(=O)(=O)CC2)nc(N2CCOCC2)n1 [Example 6, N-(3-(6-(1,1-dioxidothiomorpholino)-2-morpholinopyrimidin-4-yl)-4-methylphenyl)-3-(trifluoromethyl)benzamide] | 1.3
7 | Cc1ccc(C(=O)Nc2cccc(C(F)(F)F)c2)cc1-c1cc(N2CCS(=O)(=O)CC2)nc(N2CCOCC2)n1 [Example 7, 3-(6-(1,1-dioxidothiomorpholino)-2-morpholinopyrimidin-4-yl)-4-methyl-N-(3-(trifluoromethyl)phenyl)benzamide] | 2.5
8 | Cc1ccc(NC(=O)c2cncc(N(C)C)c2)cc1-c1cc(N2CCOCC2)nc(N2CCOCC2)n1 [Example 18, 5-(dimethylamino)-N-(3-(2,6-dimorpholinopyrimidin-4-yl)-4-methylphenyl)nicotinamide] | 0.5
9 | CCN1CCN(c2cc(C(=O)Nc3ccc(C)c(-c4cc(N5CCOCC5)nc(N5CCOCC5)n4)c3)cc(C(F)(F)F)c2)CC1 [Example 21, N-(3-(2,6-dimorpholinopyrimidin-4-yl)-4-methylphenyl)-3-(4-ethylpiperazin-1-yl)-5-(trifluoromethyl)benzamide] | 4
10 | Cc1ccc(NC(=O)c2cccc(OC(F)(F)F)c2)cc1-c1cc(N2CCOCC2)nc(N2CCOCC2)n1 [Example 22, N-(3-(2,6-dimorpholinopyrimidin-4-yl)-4-methylphenyl)-3-(trifluoromethoxy)benzamide] | 0.7
11 | Cc1ccc(NC(=O)c2cccc(C(F)(F)F)c2)cc1-c1cc(N2CCOCC2)nc(NCCO)n1 [Example 31, N-(3-(2-((2-hydroxyethyl)amino)-6-morpholinopyrimidin-4-yl)-4-methylphenyl)-3-(trifluoromethyl)benzamide] | 0.7
12 | Cc1ccc(NC(=O)c2cccc(C(F)(F)F)c2)cc1-c1cc(N2CCOCC2)nc(-n2ccnc2)n1 [Example 33, N-(3-(2-(1H-imidazol-1-yl)-6-morpholinopyrimidin-4-yl)-4-methylphenyl)-3-(trifluoromethyl)benzamide] | 0.5
13 | Cc1ccc(NC(=O)c2cccc(C(F)(F)F)c2)cc1-c1cc(N2CCOCC2)nc(OCCO)n1 [Example 40, N-(3-(2-(2-hydroxyethoxy)-6-morpholinopyrimidin-4-yl)-4-methylphenyl)-3-(trifluoromethyl)benzamide] | 0.8
14 | Cc1ccc(NC(=O)c2cccc(C(F)(F)F)c2)cc1-c1cc(N2CCOCC2)cnn1 [Example 59, N-(4-methyl-3-(5-morpholinopyridazin-3-yl)phenyl)-3-(trifluoromethyl)benzamide] | 2.8
